From patent US20260097083A1, “METHOD FOR PRODUCING PANCREATIC ENDODERM CELLS” (Kyoto University, priority 2022, published 2026)

Tested on: pancreatic endoderm cells derived from human iPS cells
Assay: Expansion culture of pancreatic endoderm cells with Y-27632
Assay type: cell-based
Description: FIG. 4-A A schematic diagram illustrating expansion culture of pancreatic endoderm cells with Y-27632 (50 μM). NKX6.1-positive pancreatic endoderm cells were seeded on a plate and cultured in a culture medium containing Y-27632 (50 μM) for one week. After the elapse of one week, the cells were reseeded, and passage and expansion culture were repeated. PDX1^+/NKX6.1^+ pancreatic endoderm cells were produced from iPS cells (585A1 line) or ES cells (KhES-3 line) on a 6-well plate using the method by Toyoda et al. (Toyoda T, et al. Stem Cell Reports 2017). Briefly, the undifferentiated cells above were seeded at 1×10^6/well on a 6-well plate coated with iMatrix-511 silk. The cells were cultured in RPMI to which an S1 culture medium (1×B-27 Supplement, 100 U/ml penicillin/streptomycin, 100 ng/ml activin A, and CHIR99021 (Day 1: 3 μM, Days 2 and 3: 1 μM, and Day 4: 0 μM)) had been added for 4 days, in an S2 culture medium (improved MEM to which 0.5×B-27 Supplement, 100 U/ml penicillin/streptomycin, and 50 ng/ml KGF/FGF7 had been added) for 5 days, and in an S3 culture medium (improved MEM to which 0.5×B-27 Supplement, 100 U/ml penicillin/streptomycin, 50 ng/ml KGF/FGF7, 0.2 μM LDN-193189, 0.1 μM SANT-1, and 10 nM TTNPB had been added) for 2 days. The cells were detached from the 6-well plate using trypsin, and were reseeded on a 6-well plate coated with iMatrix-511 silk at 1.5×10^6/well using the S3 culture medium again. On the next day, the culture medium was changed to an S4 culture medium (improved MEM to which 0.5×B-27 Supplement, 100 U/ml penicillin/streptomycin, 100 ng/ml KGF/FGF7, 50 ng/ml EGF, 10 mM nicotinamide, and 50 μM Y-27632 had been added), and the cells were cultured for 4 days. (1) After the cells produced in clause 1 above were washed with PBS(−), 1 ml of 0.25% trypsin-EDTA was added thereto, and the cells were incubated at 37° C. and 5% CO2 for 5 minutes. (2) The adherent cells were detached through pipetting and were added to a 50-ml centrifuge tube. (3) 4 ml of DMEM (Dulbecco's Modified Eagle Medium)/10% FBS/PS (penicillin-streptomycin) was added to the centrifuge tube. (4) The resulting mixture was centrifuged at 400 G for 3 minutes, and the supernatant was removed. (5) The cells were suspended in improved MEM (containing 10 μM Y-27632, 0.5×B-27 Supplement, and 100 U/ml penicillin/streptomycin), and were counted. (6) When the cells were seeded on a 6-well plate, an amount of the suspension necessary to provide 1×10^6 cells/well was collected and was centrifuged at 400 G for 3 minutes (2×10^5 cells/well for a 24-well plate). (7) After the supernatant was removed, the cells were re-suspended in improved MEM (containing 100 ng/ml KGF, 50 ng/ml EGF, 10 mM nicotinamide, 50 μM Y-27632, 0.5×B-27 Supplement, and 100 U/ml penicillin/streptomycin), the suspension was adjusted to correspond to 2 ml/well, and then the cells were seeded. A 6-well plate to which the cells were to be seeded had been coated in advance by adding a solution formed by mixing 10 μl of iMatrix-511 silk and 1.5 ml of PBS(−) to each well 1 hour before seeding, and incubating the plate at 37° C. and 5% CO2 for 1 hour. (8) On the next day (Day 1), the cells were washed with improved MEM, and then the culture medium was changed to improved MEM (5 ml/well) containing 100 ng/ml KGF, 50 ng/ml EGF, 10 mM nicotinamide, 50 μM Y-27632, 0.5×B-27 Supplement, and 100 U/ml penicillin/streptomycin. (9) The cells were washed with improved MEM 3 days after that (on Day 4), and then the culture medium was changed to the same culture medium as that in the step (7) (5 ml/well). (10) The steps (1) to (7) above were conducted 3 days after that (on Day 7), and the next passage (expansion culture) was conducted. Expansion culture and passage culture were repeated by repeating the steps (8), (9), and (10) from the next day. One round of the passage (expansion culture) corresponded to 7 days (operations above). FIGS. 4-A show the outline of this procedure. […]

[1] = 50 μM, flow cytometry, FIG. 4-E
[2] = 50 μM, immunostaining after expansion culture, FIG. 4-D

C[C@@H](N)[C@H]1CC[C@H](C(=O)Nc2ccncc2)CC1 [Y-27632]
proliferative capacity of the pancreatic endoderm cells (Ki67-positive ratio) (50 μM, during expansion culture, FIG. 4-F): maintained | Ki67-positive ratio [1]: kept | ratio of the pancreatic endoderm cells [1]: kept | expression of Ki67 [2]: maintained | expression of PDX1 and NKX6.1 [2]: maintained | total number of cells increased by a factor of (Y-27632 50 μM, 60 days, FIG. 4-B): ≥ 1×10^5 | number of PDX1+/NKX6.1+ pancreatic endoderm cells increased by a factor of (Y-27632 50 μM, 60 days, FIG. 4-C): ≥ 1×10^5 | NKX6.1-positive ratio on repeated expansion culture (culture medium for expansion culture with Y-27632): tended to gradually decrease
